From the NIST ThermoML archive (doi:10.1016/j.tca.2013.12.015)

Experiment: mn = molality of the nth substance listed, in mol/kg
Details: 101 kPa, Liquid; for speed of sound: Single path-length method; for mass density: Vibrating tube method

CCCCn1cc[n+](C)c1.[Br-] [1-butyl-3-methylimidazolium bromide] + O
Details	mass density, 288.15 K [kg/m3]	mass density, 293.15 K [kg/m3]	mass density, 298.15 K [kg/m3]	mass density, 303.15 K [kg/m3]	mass density, 308.15 K [kg/m3]	speed of sound, 288.15 K [m/s]	speed of sound, 293.15 K [m/s]	speed of sound, 298.15 K [m/s]	speed of sound, 303.15 K [m/s]	speed of sound, 308.15 K [m/s]
m1 = 0.1019	1004.34	1003.53	1002.16	1000.83	999.035	1479	1494.2	1506.8	1518.8	1528.1
m1 = 0.3048	1000.67	999.754	998.577	997.164	995.54	1470.2	1486.1	1500	1512.1	1522.2

CCOC(=O)CC(C)=O [ethyl 3-oxobutanoate] + O
Details	mass density, 288.15 K [kg/m3]	mass density, 293.15 K [kg/m3]	mass density, 298.15 K [kg/m3]	mass density, 303.15 K [kg/m3]	mass density, 308.15 K [kg/m3]	speed of sound, 288.15 K [m/s]	speed of sound, 293.15 K [m/s]	speed of sound, 298.15 K [m/s]	speed of sound, 303.15 K [m/s]	speed of sound, 308.15 K [m/s]
m1 = 0.076	1000.05	999.128	997.91	996.474	994.809	1472.6	1487.8	1501.3	1513	1523.1
m1 = 0.1625	1001.1	1000.13	998.838	997.358	995.64	1479.2	1493.6	1506.4	1517.4	1526.9
m1 = 0.2495	1002.14	1001.1	999.76	998.22	996.445	1485.5	1499.2	1511.2	1521.6	1530.4
m1 = 0.3767	1003.62	1002.48	1001.05	999.44	997.59	1494.1	1506.7	1517.7	1527.1	1535
m1 = 0.4725	1004.7	1003.48	1002	1000.32	998.41	1500	1511.7	1522	1530.8	1538.1
m1 = 0.5324	1005.38	1004.1	1002.58	1000.86	998.9	1503.4	1514.7	1524.5	1532.9	1539.8
m1 = 0.6848	1007.03	1005.6	1004	1002.18	1000.12	1511.6	1521.7	1530.5	1537.8	1543.7
m1 = 0.7843	1008.1	1006.56	1004.9	1003.01	1000.9	1516.3	1525.7	1533.7	1540.4	1545.8
m1 = 0.9019	1009.31	1007.65	1005.93	1003.94	1001.76	1521.4	1529.9	1537.2	1543.1	1547.8

COC(=O)CC(C)=O [methyl 3-oxobutanoate] + O
Details	mass density, 288.15 K [kg/m3]	mass density, 293.15 K [kg/m3]	mass density, 298.15 K [kg/m3]	mass density, 303.15 K [kg/m3]	mass density, 308.15 K [kg/m3]	speed of sound, 288.15 K [m/s]	speed of sound, 293.15 K [m/s]	speed of sound, 298.15 K [m/s]	speed of sound, 303.15 K [m/s]	speed of sound, 308.15 K [m/s]
m1 = 0.0809	1000.36	999.43	998.205	996.78	995.12	1472.5	1487.7	1501.3	1513.1	1523.2
m1 = 0.1654	1001.65	1000.66	999.37	997.9	996.2	1477.3	1491.9	1504.8	1516.1	1525.7
m1 = 0.285	1003.44	1002.36	1001	999.454	997.68	1484.7	1498.3	1510.5	1521	1529.9
m1 = 0.386	1004.9	1003.75	1002.33	1000.73	998.91	1490.1	1503.1	1514.6	1524.4	1532.7
m1 = 0.4607	1005.98	1004.75	1003.3	1001.65	999.79	1494.2	1506.6	1517.6	1527	1534.9
m1 = 0.5604	1007.37	1006.06	1004.56	1002.85	1000.94	1499.6	1511.4	1521.7	1530.5	1537.9
m1 = 0.6367	1008.4	1007.01	1005.53	1003.74	1001.79	1503	1514.2	1524.1	1532.5	1539.5
m1 = 0.7871	1010.4	1008.9	1007.35	1005.47	1003.45	1509.8	1520.2	1529.1	1536.7	1542.9
m1 = 0.8429	1011.13	1009.58	1008	1006.11	1004.04	1512.2	1522.2	1530.9	1538.1	1544

O [water] + CCCCn1cc[n+](C)c1.[Br-]
Details	mass density [kg/m3]
308.15 K, m2 = 0	994.062

O [water] + CCOC(=O)CC(C)=O
Details	mass density [kg/m3]
308.15 K, m2 = 0	994.062

O [water] + COC(=O)CC(C)=O
Details	mass density [kg/m3]
308.15 K, m2 = 0	994.062
